Measured values from US12495798B2, “Nicotinamide compound and herbicidal composition comprising compound” (KOREA RESEARCH INSTITUTE OF CHEMICAL TECHNOLOGY, priority 2019, dated 2025).

What was measured:
Assay type in all cases: in vivo
Parameters in all cases: key: 0 (no harm); 9 (complete withered)
corn [1] = experiment: Phytotoxicity test for upland field crops (foliar treatment test)
Method in brief: (§1)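 Crops grown in greenhouse pots (30±5 °C, 14/10 h light) were foliar-sprayed with compound at 19–300 g a.i./ha in 33% acetone/0.1% Tween-20. Phytotoxicity scored 0 (no harm) to 9 (complete withering) versus untreated control at 7 and 14 days, 21 if needed.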

cotton [2] = experiment: as above
Method in brief: as §1

rice [3] = experiment: as above
Method in brief: as §1

soybean [4] = experiment: as above
Method in brief: as §1

wheat [5] = experiment: as above
Method in brief: as §1

corn [6] = experiment: Phytotoxicity test for field crops (soil treatment test)
Protocol: (§2) Experimental Example 4: Phytotoxicity Test for Field Crops (Soil Treatment Test)
(§3) Soil treatment was performed for sown crops and weeds in a square plastic pot having a surface area of 50 cm^2 filled with sterilized horticultural soil (pH 6.1, organic material 1.0%, clay 21%, silt 17%, sand 52%). As a fertilizer per pot, 0.5 g of horticultural mixed fertilizer (N:P:K=17:21:17) was treated by mixing with soil. Five kinds of crops such as rice, wheat, corn, soybean, and cotton were sown in each pot. One day after sowing, test compound solutions were made by diluting with the diluent (33% acetone, 0.1% Tween-20) so that the final treatment amount of the test compounds was 19˜300 g a.i./ha. The prepared test compound solutions were treated using a spray booth (SB6-016) at a treatment amount of 100 ml per 1 m^2 of treatment area. The treated crops were managed in greenhouse conditions (average temperature 30±5° C., light/dark=14/10 hours). External symptoms and phytotoxicity were visually investigated 10 and 20 days after treatment. In the evaluation of the phytotoxicity for the crop, the grade of 0 (no harm) to 9 (complete withered) was used. The results of Table 10 were obtained by evaluating phytotoxicity value to the untreated control.

cotton [7] = experiment: as above
Protocol: as §2, §3

rice [8] = experiment: as above
Protocol: as §2, §3

soybean [9] = experiment: as above
Protocol: as §2, §3

wheat [10] = experiment: as above
Protocol: as §2, §3

Cn1nnnc1NC(=O)c1ccc(C(F)(F)F)nc1Sc1nnnn1C [Compound No. 1-40, N-(1-methyl-1H-tetrazol-5-yl)-2-((1-methyl-1H-tetrazol-5-yl)thio)-6-(trifluoromethyl)nicotinamide]
Foliar treatment phytotoxicity, Corn (corn [1]; 50 g ai/ha, Corn (7 days after treatment)): 0 | Foliar treatment phytotoxicity, Corn (corn [1]; 50 g ai/ha, Corn (14 days after treatment)): 0 | Foliar treatment phytotoxicity, Corn (corn [1]; 100 g ai/ha, Corn (7 days after treatment)): 0 | Foliar treatment phytotoxicity, Corn (corn [1]; 100 g ai/ha, Corn (14 days after treatment)): 0 | Foliar treatment phytotoxicity, Cotton (cotton [2]; 50 g ai/ha, Cotton (7 days after treatment)): 2 | Foliar treatment phytotoxicity, Cotton (cotton [2]; 50 g ai/ha, Cotton (14 days after treatment)): 3 | Foliar treatment phytotoxicity, Cotton (cotton [2]; 100 g ai/ha, Cotton (7 days after treatment)): 3 | Foliar treatment phytotoxicity, Cotton (cotton [2]; 100 g ai/ha, Cotton (14 days after treatment)): 4 | Foliar treatment phytotoxicity, Rice (rice [3]; 50 g ai/ha, Rice (7 days after treatment)): 0 | Foliar treatment phytotoxicity, Rice (rice [3]; 50 g ai/ha, Rice (14 days after treatment)): 0 | Foliar treatment phytotoxicity, Rice (rice [3]; 100 g ai/ha, Rice (7 days after treatment)): 0 | Foliar treatment phytotoxicity, Rice (rice [3]; 100 g ai/ha, Rice (14 days after treatment)): 1 | Foliar treatment phytotoxicity, Soybean (soybean [4]; 50 g ai/ha, Soybean (7 days after treatment)): 6 | Foliar treatment phytotoxicity, Soybean (soybean [4]; 50 g ai/ha, Soybean (14 days after treatment)): 5 | Foliar treatment phytotoxicity, Soybean (soybean [4]; 100 g ai/ha, Soybean (7 days after treatment)): 6 | Foliar treatment phytotoxicity, Soybean (soybean [4]; 100 g ai/ha, Soybean (14 days after treatment)): 5 | Foliar treatment phytotoxicity, Wheat (wheat [5]; 50 g ai/ha, Wheat (7 days after treatment)): 0 | Foliar treatment phytotoxicity, Wheat (wheat [5]; 50 g ai/ha, Wheat (14 days after treatment)): 0 | Foliar treatment phytotoxicity, Wheat (wheat [5]; 100 g ai/ha, Wheat (7 days after treatment)): 1 | Foliar treatment phytotoxicity, Wheat (wheat [5]; 100 g ai/ha, Wheat (14 days after treatment)): 0 | Soil treatment phytotoxicity, Corn (corn [6]; 50 g ai/ha, Corn (10 days after treatment)): 0 | Soil treatment phytotoxicity, Corn (corn [6]; 50 g ai/ha, Corn (20 days after treatment)): 0 | Soil treatment phytotoxicity, Corn (corn [6]; 100 g ai/ha, Corn (10 days after treatment)): 0 | Soil treatment phytotoxicity, Corn (corn [6]; 100 g ai/ha, Corn (20 days after treatment)): 0 | Soil treatment phytotoxicity, Cotton (cotton [7]; 50 g ai/ha, Cotton (10 days after treatment)): 1 | Soil treatment phytotoxicity, Cotton (cotton [7]; 50 g ai/ha, Cotton (20 days after treatment)): 0 | Soil treatment phytotoxicity, Cotton (cotton [7]; 100 g ai/ha, Cotton (10 days after treatment)): 3 | Soil treatment phytotoxicity, Cotton (cotton [7]; 100 g ai/ha, Cotton (20 days after treatment)): 0 | Soil treatment phytotoxicity, Rice (rice [8]; 50 g ai/ha, Rice (10 days after treatment)): 0 | Soil treatment phytotoxicity, Rice (rice [8]; 50 g ai/ha, Rice (20 days after treatment)): 0 | Soil treatment phytotoxicity, Rice (rice [8]; 100 g ai/ha, Rice (10 days after treatment)): 0 | Soil treatment phytotoxicity, Rice (rice [8]; 100 g ai/ha, Rice (20 days after treatment)): 0 | Soil treatment phytotoxicity, Soybean (soybean [9]; 50 g ai/ha, Soybean (10 days after treatment)): 0 | Soil treatment phytotoxicity, Soybean (soybean [9]; 50 g ai/ha, Soybean (20 days after treatment)): 0 | Soil treatment phytotoxicity, Soybean (soybean [9]; 100 g ai/ha, Soybean (10 days after treatment)): 0 | Soil treatment phytotoxicity, Soybean (soybean [9]; 100 g ai/ha, Soybean (20 days after treatment)): 0 | Soil treatment phytotoxicity, Wheat (wheat [10]; 50 g ai/ha, Wheat (10 days after treatment)): 0 | Soil treatment phytotoxicity, Wheat (wheat [10]; 50 g ai/ha, Wheat (20 days after treatment)): 0 | Soil treatment phytotoxicity, Wheat (wheat [10]; 100 g ai/ha, Wheat (10 days after treatment)): 0 | Soil treatment phytotoxicity, Wheat (wheat [10]; 100 g ai/ha, Wheat (20 days after treatment)): 0
